Assay results as given in US9650364B2, “Quinazolines as kinase inhibitors” (GlaxoSmithKline Intellectual Property Development Limited, priority 2013, dated 2017).
Like-named read-outs stand apart in the source and are kept apart here. Values belong to the compound of their own block, whether it stands above or below them.

Tests used:
[1] = test system: RIP2 kinase-dependent cytokine production (TNFα) in human whole blood; experiment: MDP-stimulated human whole blood cytokine (TNFα) production assay; type: cell-based; details: inhibition of TNFα, MDP 100 ng/mL, 6 hr, mean of minimum 2 experiments
Experimental: A muramyl dipeptide (MDP)-stimulated human whole blood cytokine production assay was developed to evaluate the cellular potency and efficacy of novel test compounds. Heparinized blood (160 μL) obtained from healthy human volunteers was dispensed into individual wells of a multiwell plate. Test compounds were dissolved in 100% DMSO and diluted in calcium- and magnesium-free D-PBS to prepare 10× working stock solutions. Twenty microliters of diluted test compound was added per well and the plates were placed on a plate shaker (500 rpm) and incubated for 30 min in a humidified incubator (37° C., 5% CO2). A 10× working stock of MDP was prepared in sterile, endotoxin-free water containing 1% DMSO. Twenty microliters of the MDP stock solution was added per well (final conc.=100 ng/mL) to stimulate RIP2 kinase-dependent cytokine production. The final concentration of DMSO was 0.1% (v/v) in all wells. Plates were incubated for an additional 6 hr (as noted above). Then an additional 100 μL of D-PBS (Dulbecco's phosphate-buffered saline) was added/well, the plates were centrifuged, and supernatants collected. TNFα levels in the supernatants were quantified using a commercial immunoassay (MesoScale Discovery). Test compound inhibition was expressed as percent (%) inhibition of internal assay controls. For concentration/dose response experiments, normalized data were fit and pIC50s determined using conventional techniques. The pIC50s are averaged to determine a mean value, for a minimum of 2 experiments.

[2] = molecular target: T1, RIPK2 (full length FLAG His tagged) (Homo sapiens, UniProt O43353); experiment: Fluorescent polarization based binding assay at the ATP binding pocket of RIPK2; details: RIPK2 FP binding
T1 construct: Full length FLAG His tagged RIPK2 was purified from a Baculovirus expression system; FLAG (N); 6His (N); made in house; host or cells: Spodoptera frugiperda (Sf9) insect cells, baculovirus
T1 sequence (O43353 whole entry): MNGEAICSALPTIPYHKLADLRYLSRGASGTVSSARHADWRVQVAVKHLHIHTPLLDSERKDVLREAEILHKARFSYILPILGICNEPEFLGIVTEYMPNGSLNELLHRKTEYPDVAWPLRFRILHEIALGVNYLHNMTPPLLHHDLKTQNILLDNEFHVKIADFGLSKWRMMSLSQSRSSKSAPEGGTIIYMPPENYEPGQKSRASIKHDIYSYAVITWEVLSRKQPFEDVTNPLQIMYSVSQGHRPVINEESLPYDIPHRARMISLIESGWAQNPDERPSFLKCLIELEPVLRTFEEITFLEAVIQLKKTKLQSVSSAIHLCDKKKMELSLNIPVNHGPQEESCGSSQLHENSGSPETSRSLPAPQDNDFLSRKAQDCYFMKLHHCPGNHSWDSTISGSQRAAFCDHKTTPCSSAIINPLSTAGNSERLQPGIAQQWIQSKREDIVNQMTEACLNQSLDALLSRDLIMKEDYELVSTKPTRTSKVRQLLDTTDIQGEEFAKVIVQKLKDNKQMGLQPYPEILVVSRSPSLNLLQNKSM
Source text: A fluorescent polarization based binding assay was developed to quantitate interaction of novel test compounds at the ATP binding pocket of RIPK2, by competition with a fluorescently labeled ATP competitive ligand. Full length FLAG His tagged RIPK2 was purified from a Baculovirus expression system and was used at a final assay concentration of twice the KDapparent. A fluorescent labeled ligand (5-({[2-({[3-({4-[(5-hydroxy-2-methylphenyl)amino]-2-pyrimidinyl}amino)phenyl]carbonyl}amino)ethyl]amino}carbonyl)-2-(6-hydroxy-3-oxo-3H-xanthen-9-yl)benzoic acid, prepared as described in WO2011/120025) was used at a final assay concentration of 5 nM. Both the enzyme and ligand were prepared in solutions in 50 mM HEPES pH7.5, 150 mM NaCl, 10 mM MgCl2, 1 mM DTT, and 1 mM CHAPS. Test compounds were prepared in 100% DMSO and 100 nL was dispensed to individual wells of a multiwell plate. Next, 5 ul RIPK2 was added to the test compounds at twice the final assay concentration, and incubated at rt for 10 min. Following the incubation, 5 ul of the fluorescent labeled ligand solution, was added to each reaction, at twice the final assay concentration, and incubated at rt for at least 10 min. Finally, samples were read on an instrument capable of measuring fluorescent polarization. Test compound inhibition was expressed as percent (%) inhibition of internal assay controls.
For concentration/dose response experiments, normalized data were fit and pIC50s determined using conventional techniques. The pIC50s are averaged to determine a mean value, for a minimum of 2 experiments.
Full-length human RIPK2 (receptor-interacting serine-threonine kinase 2) cDNA was purchased from Invitrogen (Carlsbad, Calif., USA, Clone ID:IOH6368, RIPK2-pENTR 221). Gateway® LR cloning was used to site-specifically recombine RIPK2 downstream to an N-terminal FLAG-6His contained within the destination vector pDEST8-FLAG-His6 according to the protocol described by Invitrogen. Transfection into Spodoptera frugiperda (Sf9) insect cells was performed using Cellfectin® (Invitrogen), according to the manufacturer's protocol.

[3] = test system: isolated rabbit left ventricular wedge preparation; experiment: Rabbit cardiac wedge preparation (ECG and isometric contractile force); details: for TdP Score: BCL=2000 ms, score range −2 to 14; for TdP Score / ICF (% change), contractility / QRS / QT / Tp-e (msec), transmural dispersion / Δ QT %: mean, n = 2; for Proarrhythmia: preparations affected of n = 2
Experimental: Female rabbits weighing 2.2-3 kg were anticoagulated with heparin and anesthetized with pentobarbital (50 mg/kg, i.v.). The chest was opened via a left thoracotomy, and the heart was excised and placed in a cardioplegic solution consisting of cold (4° C.) normal Tyrode's solution. A transmural wedge with dimensions of approximately 1.5 cm wide and 2-3 cm long was dissected from the left ventricle.
The wedge tissue was cannulated via the left anterior descending artery or the circumflex artery and perfused with cardioplegic solution. The preparation was then placed in a small tissue bath and arterially perfused with Tyrode's solution (T: 35.7±0.1° C., perfusion pressure: 30-45 mmHg). The ventricular wedge was allowed to equilibrate in the tissue bath until electrically stable, usually one hour. The preparations were stimulated at basic cycle lengths (BCL) of 1000 and 2000 msec using bipolar silver electrodes insulated except at the tips and applied to the endocardial surface.
A transmural electrocardiogram (ECG) was recorded in all experiments using extracellular silver/silver chloride electrodes placed in the Tyrode's solution bathing the preparation 1.0 to 1.5 cm from the epicardial and endocardial surfaces, along the same vector as the transmembrane recordings (Epi: “+” pole). On the ECG, transmural dispersion of repolarization (TDR) was defined by the interval between the end and the peak of T wave (Tp-e). The QT interval was defined as the time from the onset of the QRS to the point at which the final downslope of the T wave crossed the isoelectric line. QRS, QT, and Tp-e durations are measured for 10 sweeps and averaged per treatment. Data from total population of animals is averaged per treatment, and compared to average control values.
isometric contractile force generation (% ICF) is measured for 10 sweeps and averaged per treatment. Data from total population of animals is averaged per treatment, and compared to average control values.
Each test compound was prepared in 100% DMSO at a stock concentration of 30 mM. Compound was diluted to the highest concentration tested into Tyrode's buffer (containing in mM: 129 NaCl, 4 KCl, 0.9 NaH2PO4, 20 NaHCO3, 1.8 CaCl2, 0.5 MgSO4, and 5.5 glucose, pH 7.4 when buffered with 95% O2 and 5% CO2) from which subsequent serial dilutions were prepared.
Each test compound was tested at 4 concentrations, from 1-30 μM. After the wedge preparations were perfused with normal Tyrode's solution and stimulated at a BCL of 1000 msec for one hour, stimulation frequency was reduced to a BCL of 2000 msec for a 5 minute period of stabilization after which baseline ECG and isometric contractile force (ICF) were recorded. The preparations were then returned to a BCL of 1000 msec and perfused with Tyrode's solution containing a test compound. For each test compound concentration, wedge preparations were perfused for 20 minutes at a BCL of 1000 msec followed by 5 minutes at a BCL of 2000 msec during which ECG and ICF were recorded. The compound of Example 2 (6-(tert-butylsulfonyl)-N-(4,5-dimethyl-1H-pyrazol-3-yl)-7-ethoxyquinazolin-4-amine) was evaluated in the rabbit cardiac wedge preparation. The four major readouts from the wedge preparation include QT prolongation, torsadogenicity (TdP score derived from QT, Tp-e and early after depolarizations), impulse conduction (QRS-related) and contractility, which are presented in Table 2.
A scoring system was used for the estimate of risk of a compound for the relative TdP risk using the isolated rabbit left ventricular wedge preparation: points for the QT interval, the Tp-e/QT ratio. The TdP score was generated by first converting the QT interval and Tp-e/QT ratio to % change from baseline. These values are individually assigned a TdP score based on the following system: <−5%=−1, −5% to 10%=0, 10% to 20%=1, 20% to 30%=2, >30%=3. Total scoring system range is −2 to 14 at BCL=2000 ms.

337 member kinase panel = experiment: Kinome selectivity, in vitro profiling (Reaction Biology Corporation); type: biochemical; details: compound at 1 μM
Experimental: Kinome selectivity (as conducted by Reaction Biology Corporation, One Great Valley Parkway, Malvern, Pa., USA, 19355, http://www.reactionbiology.com) for the compound of Example 2 (6-(tert-butylsulfonyl)-N-(4,5-dimethyl-1H-pyrazol-3-yl)-7-ethoxyquinazolin-4-amine) was determined via in vitro profiling against a 337 member kinase panel.

[4] = mean of minimum 2 experiments, read-out: pIC50 (converted)
[5] = updated average after continued testing, read-out: average pIC50 after continued testing (converted)

IC50 [1]: 0.1 µM | IC50 [2, 4]: 0.0126 µM | IC50 [2, 5]: 0.00794 µM
SMILES: CCCOc1cc2ncnc(Nc3n[nH]c(C)c3C)c2cc1S(=O)(=O)C(C)(C)C [Example 3, 6-(tert-Butylsulfonyl)-N-(4,5-dimethyl-1H-pyrazol-3-yl)-7-propoxyquinazolin-4-amine]

IC50 [1]: 0.0398 µM | IC50 [2, 4]: 0.0398 µM | IC50 [2, 5]: 0.0316 µM
SMILES: COCCOc1cc2ncnc(Nc3n[nH]c(C)c3C)c2cc1S(=O)(=O)C(C)(C)C [Example 1, 6-(tert-Butylsulfonyl)-N-(4,5-dimethyl-1H-pyrazol-3-yl)-7-(2-methoxyethoxy)quinazolin-4-amine]

IC50 [1]: 0.0631 µM | IC50 [2, 4]: 0.01 µM
SMILES: Cc1[nH]nc(Nc2ncnc3cc(OCC4CCCO4)c(S(=O)(=O)C(C)(C)C)cc23)c1C (stereo not shown) [Example 4, 6-(tert-Butylsulfonyl)-N-(4,5-dimethyl-1H-pyrazol-3-yl)-7-((tetrahydrofuran-2-yl)methoxy)quinazolin-4-amine]

IC50 [1]: 0.0631 µM | number of kinases with >50% inhibition, of 337 kinases tested (337 member kinase panel): 4 | number of kinases with >70% inhibition, of 337 kinases tested (337 member kinase panel): 1 | IC50 [2, 4]: 0.0158 µM
SMILES: CCOc1cc2ncnc(Nc3n[nH]c(C)c3C)c2cc1S(=O)(=O)C(C)(C)C [Example 2, 6-(tert-Butylsulfonyl)-N-(4,5-dimethyl-1H-pyrazol-3-yl)-7-ethoxyquinazolin-4-amine]
TdP Score ([3]; 1 μM): −0.50 | ICF (% change), contractility ([3]; 1 μM): −4.4% | QRS ([3]; 1 μM): 39.6 ms | QT ([3]; 1 μM): 346.4 ms | Tp-e (msec), transmural dispersion ([3]; 1 μM): 71.9 ms | Δ QT % ([3]; 1 μM): 3% | Proarrhythmia ([3]; 1 μM): 0/2 | TdP Score ([3]; 3 μM): 0.00 | ICF (% change), contractility ([3]; 3 μM): −5.3% | QRS ([3]; 3 μM): 39.2 ms | QT ([3]; 3 μM): 351.9 ms | Tp-e (msec), transmural dispersion ([3]; 3 μM): 73.2 ms | Δ QT % ([3]; 3 μM): 4.8% | Proarrhythmia ([3]; 3 μM): 0/2 | TdP Score ([3]; 10 μM): −0.50 | ICF (% change), contractility ([3]; 10 μM): −15.1% | QRS ([3]; 10 μM): 39.4 ms | QT ([3]; 10 μM): 348.8 ms | Tp-e (msec), transmural dispersion ([3]; 10 μM): 68.4 ms | Δ QT % ([3]; 10 μM): 4.0% | Proarrhythmia ([3]; 10 μM): 0/2 | TdP Score ([3]; 30 μM): −0.50 | ICF (% change), contractility ([3]; 30 μM): −20.7% | QRS ([3]; 30 μM): 39.7 ms | QT ([3]; 30 μM): 348.8 ms | Tp-e (msec), transmural dispersion ([3]; 30 μM): 69.1 ms | Δ QT % ([3]; 30 μM): 4.0% | Proarrhythmia ([3]; 30 μM): 0/2
